Key:
Mus musculus [1] = assay: In vivo inhibitory activity against mescaline-induced head twitches of mice after pretreatment for 1 hour upon subcutaneous administration; type: functional; conditions: sc
Mus musculus [2] = assay: In vivo inhibitory activity against mescaline-induced head twitches of mice after pretreatment for 15 hours upon peroral administration; type: functional; conditions: po
Rattus norvegicus [3] = assay: In vivo inhibitory activity against mescaline-induced head twitches of rat after pretreatment for 1 hour upon peroral administration; type: functional
[4] = biological target: 5-hydroxytryptamine receptor 2A (Rattus norvegicus, UniProt P14842); assay: In vitro binding affinity towards serotonin 5-HT2A receptor in rat cortical membranes using [3H]ketanserin as radioligand; type: cell membranes
5-hydroxytryptamine receptor 2A, sequence (P14842 whole entry): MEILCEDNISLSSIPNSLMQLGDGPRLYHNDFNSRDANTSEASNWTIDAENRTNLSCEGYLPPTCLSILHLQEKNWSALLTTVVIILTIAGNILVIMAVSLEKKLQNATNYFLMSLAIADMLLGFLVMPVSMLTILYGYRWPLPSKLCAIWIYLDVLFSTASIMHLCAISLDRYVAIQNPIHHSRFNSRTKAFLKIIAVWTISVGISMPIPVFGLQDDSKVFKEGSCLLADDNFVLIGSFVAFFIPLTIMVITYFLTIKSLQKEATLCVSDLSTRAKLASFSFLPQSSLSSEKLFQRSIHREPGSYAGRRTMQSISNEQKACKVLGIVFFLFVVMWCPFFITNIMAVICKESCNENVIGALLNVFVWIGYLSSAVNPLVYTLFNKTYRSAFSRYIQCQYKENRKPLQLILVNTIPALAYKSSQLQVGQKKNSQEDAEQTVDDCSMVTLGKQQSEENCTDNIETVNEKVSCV

[5] = biological target: T1, Adrenergic receptor alpha-1 (Homo sapiens, UniProt P35348+P25100+P35368); assay: Binding affinity towards Alpha-1 adrenergic receptor; type: protein assay
T1 sequence (P35348 whole entry): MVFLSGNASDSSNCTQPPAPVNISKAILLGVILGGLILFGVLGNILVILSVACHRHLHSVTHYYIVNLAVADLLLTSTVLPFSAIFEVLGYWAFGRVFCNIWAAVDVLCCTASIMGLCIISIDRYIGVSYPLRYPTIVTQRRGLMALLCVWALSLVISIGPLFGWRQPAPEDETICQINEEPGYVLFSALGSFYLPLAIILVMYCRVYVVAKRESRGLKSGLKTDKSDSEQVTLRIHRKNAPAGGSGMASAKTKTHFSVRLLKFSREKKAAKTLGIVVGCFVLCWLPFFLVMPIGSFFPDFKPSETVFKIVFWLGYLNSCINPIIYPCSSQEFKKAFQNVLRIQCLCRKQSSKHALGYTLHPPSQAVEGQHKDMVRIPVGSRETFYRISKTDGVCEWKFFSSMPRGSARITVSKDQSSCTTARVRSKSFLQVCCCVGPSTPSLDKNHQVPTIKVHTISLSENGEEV
T1 sequence (P25100 whole entry): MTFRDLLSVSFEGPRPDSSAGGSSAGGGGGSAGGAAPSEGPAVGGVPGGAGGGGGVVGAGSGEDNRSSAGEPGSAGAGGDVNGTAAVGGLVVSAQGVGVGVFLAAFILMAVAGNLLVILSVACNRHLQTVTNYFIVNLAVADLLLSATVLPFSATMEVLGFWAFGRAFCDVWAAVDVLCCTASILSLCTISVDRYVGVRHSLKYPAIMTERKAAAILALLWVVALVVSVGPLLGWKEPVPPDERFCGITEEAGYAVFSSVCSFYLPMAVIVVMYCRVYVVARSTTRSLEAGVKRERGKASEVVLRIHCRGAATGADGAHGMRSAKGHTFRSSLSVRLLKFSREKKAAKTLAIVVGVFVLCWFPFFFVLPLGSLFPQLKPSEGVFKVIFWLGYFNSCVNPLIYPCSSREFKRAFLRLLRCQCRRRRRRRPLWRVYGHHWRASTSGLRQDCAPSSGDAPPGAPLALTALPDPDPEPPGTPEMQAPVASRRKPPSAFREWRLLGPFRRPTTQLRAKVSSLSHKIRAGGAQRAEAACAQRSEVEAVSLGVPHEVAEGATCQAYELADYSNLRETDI
T1 sequence (P35368 whole entry): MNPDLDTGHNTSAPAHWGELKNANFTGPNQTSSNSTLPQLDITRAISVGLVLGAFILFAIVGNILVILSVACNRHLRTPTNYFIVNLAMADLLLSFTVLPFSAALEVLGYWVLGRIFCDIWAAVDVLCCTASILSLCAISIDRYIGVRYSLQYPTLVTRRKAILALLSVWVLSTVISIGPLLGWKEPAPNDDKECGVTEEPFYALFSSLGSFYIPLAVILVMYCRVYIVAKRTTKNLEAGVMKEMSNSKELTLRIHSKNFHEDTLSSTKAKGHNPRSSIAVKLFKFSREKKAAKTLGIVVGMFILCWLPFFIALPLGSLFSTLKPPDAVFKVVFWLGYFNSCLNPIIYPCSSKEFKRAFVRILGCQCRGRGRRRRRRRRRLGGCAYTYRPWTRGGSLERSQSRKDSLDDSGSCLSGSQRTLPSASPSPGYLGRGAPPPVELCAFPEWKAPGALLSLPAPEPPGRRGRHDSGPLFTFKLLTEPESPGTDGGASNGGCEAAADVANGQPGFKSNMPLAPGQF

D(2) dopamine receptor = D(2) dopamine receptor (Homo sapiens, UniProt P14416); assay: Binding affinity towards dopamine D2 receptor
D(2) dopamine receptor, sequence (P14416 whole entry): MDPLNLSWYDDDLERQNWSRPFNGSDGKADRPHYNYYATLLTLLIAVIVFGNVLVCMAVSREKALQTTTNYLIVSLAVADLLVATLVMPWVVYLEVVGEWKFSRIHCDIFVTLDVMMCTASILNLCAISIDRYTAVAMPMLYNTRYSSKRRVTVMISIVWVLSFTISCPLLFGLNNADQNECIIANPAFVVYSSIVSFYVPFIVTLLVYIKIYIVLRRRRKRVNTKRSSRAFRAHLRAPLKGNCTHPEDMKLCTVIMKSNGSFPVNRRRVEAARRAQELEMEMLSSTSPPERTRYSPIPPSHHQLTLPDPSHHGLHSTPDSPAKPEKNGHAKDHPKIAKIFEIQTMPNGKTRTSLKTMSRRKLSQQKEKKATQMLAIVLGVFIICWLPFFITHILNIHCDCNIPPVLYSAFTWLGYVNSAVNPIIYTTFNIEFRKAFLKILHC

Histamine H1 receptor = Histamine H1 receptor (Homo sapiens, UniProt P35367); assay: Binding affinity towards histamine H1 receptor
Histamine H1 receptor, sequence (P35367 whole entry): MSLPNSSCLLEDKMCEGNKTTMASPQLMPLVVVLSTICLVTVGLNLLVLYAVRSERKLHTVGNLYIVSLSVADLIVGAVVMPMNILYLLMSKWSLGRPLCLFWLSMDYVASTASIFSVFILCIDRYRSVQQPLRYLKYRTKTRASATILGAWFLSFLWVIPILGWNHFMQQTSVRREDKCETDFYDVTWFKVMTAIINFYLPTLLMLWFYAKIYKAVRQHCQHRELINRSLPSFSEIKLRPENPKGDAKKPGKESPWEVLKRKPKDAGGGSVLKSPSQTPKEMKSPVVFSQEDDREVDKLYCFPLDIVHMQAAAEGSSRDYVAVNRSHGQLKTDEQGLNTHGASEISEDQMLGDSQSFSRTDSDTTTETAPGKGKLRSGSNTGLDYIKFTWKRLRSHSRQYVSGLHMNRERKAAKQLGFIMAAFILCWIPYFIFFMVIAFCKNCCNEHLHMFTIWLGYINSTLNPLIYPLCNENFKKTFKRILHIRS

Mus musculus [6] = assay: In vivo inhibitory activity against DOI-induced head twitches of mice after pretreatment for 15 hours upon peroral administration; type: functional
[7] = biological target: T2, Muscarinic acetylcholine receptor M4 (Homo sapiens, UniProt P08173); assay: Binding affinity towards muscarinic receptor
T2 sequence (P08173 whole entry): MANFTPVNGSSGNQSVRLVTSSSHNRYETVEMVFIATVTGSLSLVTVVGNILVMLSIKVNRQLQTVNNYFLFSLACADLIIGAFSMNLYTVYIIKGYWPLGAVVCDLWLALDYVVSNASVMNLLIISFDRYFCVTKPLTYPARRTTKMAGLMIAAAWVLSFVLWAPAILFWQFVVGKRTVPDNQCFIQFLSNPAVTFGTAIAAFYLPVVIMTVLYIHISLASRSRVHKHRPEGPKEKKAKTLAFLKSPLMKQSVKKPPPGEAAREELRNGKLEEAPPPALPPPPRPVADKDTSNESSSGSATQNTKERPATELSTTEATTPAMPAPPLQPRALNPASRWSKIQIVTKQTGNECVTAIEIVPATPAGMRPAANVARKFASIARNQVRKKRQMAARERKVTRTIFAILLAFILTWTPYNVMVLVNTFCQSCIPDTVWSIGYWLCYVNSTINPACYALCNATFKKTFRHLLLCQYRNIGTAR

Rattus norvegicus [8] = assay: In vivo inhibitory activity against mescaline-induced head twitches of rat after pretreatment for 1 hour upon subcutaneous administration; type: functional
Rattus norvegicus [9] = assay: In vivo inhibitory activity against mescaline-induced head twitches of rat after pretreatment for 16 hours upon peroral administration; type: functional
Rattus norvegicus [10] = assay: In vivo inhibitory activity against mescaline-induced head twitches of rat after pretreatment for 6 hours upon peroral administration; type: functional
Mus musculus [11] = assay: In vivo inhibitory activity against DOI-induced head twitches of mice after pretreatment for 1 hour upon subcutaneous administration; type: functional
[12] = Rattus norvegicus, po, read-out: ED50

Compound c1ccc(N2CCN(C3CC[Si](c4ccccc4)(c4ccccc4)C3)CC2)cc1 (stereo unspecified) has an ED50 (Mus musculus [1]) of 68 mg/kg, an ED50 (Mus musculus [2]) of 45 mg/kg and an ED50 (Rattus norvegicus [3]; [12]) of 84 mg/kg. For the same compound, the IC50 [4] was 1 nM.

In the case of Oc1ccc(N2CCN(C3CC[Si](c4ccccc4)(c4ccccc4)C3)CC2)cc1 (stereo unspecified), the IC50 [4] is reported as 46 nM.

In the case of c1ccc([Si]2(c3ccccc3)CCC(N3CCN(c4ncccn4)CC3)C2)cc1 (stereo unspecified), the IC50 [4] is reported as 80 nM.

Work on Cc1ccc(N2CCN(C3CC[Si](c4ccccc4)(c4ccccc4)C3)CC2)cc1 (stereo unspecified) yielded an IC50 [4] of 10 nM.

Compound Fc1ccc(C2=CCN(C3CC[Si](c4ccccc4)(c4ccccc4)C3)CC2)cc1 (stereo unspecified) has an IC50 [4] of 14 nM.

c1ccc([Si]2(c3ccccc3)CCC(N3CCN(c4ccccn4)CC3)C2)cc1 (stereo unspecified) was tested, and the IC50 [4] was 29 nM.

Fc1ccc(N2CCN(C3CC[Si](c4ccc(F)cc4)(c4ccc(F)cc4)C3)CC2)cc1 (stereo unspecified) was tested, and the IC50 [4] was 18 nM.

Fc1cccc(N2CCN(C3CC[Si](c4ccccc4)(c4ccccc4)C3)CC2)c1 (stereo unspecified) was tested, and the IC50 [4] was 3.4 nM.

Compound c1ccc(C2CCN(C3CC[Si](c4ccccc4)(c4ccccc4)C3)CC2)cc1 (stereo unspecified) has an IC50 [4] of 53 nM.

In the case of Clc1ccc(N2CCN(C3CC[Si](c4ccccc4)(c4ccccc4)C3)CC2)cc1 (stereo unspecified), the IC50 [4] is reported as 25 nM.

Cc1cccc(N2CCN(C3CC[Si](c4ccccc4)(c4ccccc4)C3)CC2)c1 (stereo unspecified) showed an IC50 [4] of 33 nM.

In the case of Fc1ccccc1N1CCN(C2CC[Si](c3ccccc3)(c3ccccc3)C2)CC1 (stereo unspecified), the IC50 [4] is reported as 100 nM.

Work on Fc1ccc(N2CCN(C3CC[Si](c4ccccc4)(c4ccccc4)C3)CC2)cc1 (stereo unspecified) yielded an ED50 (Mus musculus [1]) of 10 mg/kg, an ED50 (Mus musculus [2]) of 15 mg/kg and an IC50 [4] of 0.9 nM.

Fc1ccc([Si]2(c3ccc(F)cc3)CCC(N3CCN(c4ccccc4)CC3)C2)cc1 (racemic) gave an IC50 [5] of 86 nM, an IC50 (D(2) dopamine receptor) of 140 nM and an IC50 (Histamine H1 receptor) greater than 1000 nM. It also gave an ED50 (Mus musculus [1]) of 1.38 mg/kg, an ED50 (Mus musculus [2]) of 0.44 mg/kg and an ED50 (Mus musculus [6]) of 0.59 mg/kg. For the same compound, the IC50 [7] was greater than 1000 nM, the ED50 (Rattus norvegicus [3]) was 1.93 mg/kg and the ED50 (Rattus norvegicus [8]) was 10 mg/kg. For the same compound, the ED50 (Rattus norvegicus [9]) was 1.25 mg/kg, the ED50 (Rattus norvegicus [10]) was 0.48 mg/kg and the IC50 [4] was 2 nM. It also gave an ED50 (Mus musculus [11]) of 0.73 mg/kg.

For Fc1ccc([Si]2(c3ccccc3)CCC(N3CCN(c4ccccc4)CC3)C2)cc1 (single isomer, unassigned), the IC50 [4] was 20 nM.

Fc1ccc([Si]2(c3ccc(F)cc3)CCC(N3CCN(c4ccccc4)CC3)C2)cc1 (single isomer, unassigned; (+)) was tested, and the IC50 [5] was 100 nM, the IC50 (D(2) dopamine receptor) was 100 nM and the IC50 (Histamine H1 receptor) was greater than 1000 nM. For the same compound, the ED50 (Mus musculus [6]) was 0.62 mg/kg, the IC50 [7] was greater than 1000 nM and the ED50 (Rattus norvegicus [3]) was 2.03 mg/kg. It also gave an ED50 (Rattus norvegicus [8]) of 1.56 mg/kg, an ED50 (Rattus norvegicus [9]; [12]) of less than 2.5 mg/kg and an ED50 (Rattus norvegicus [10]; [12]) of less than 0.63 mg/kg. It also gave an IC50 [4] of 3 nM and an ED50 (Mus musculus [11]) of 0.59 mg/kg.

With Fc1ccc([Si]2(c3ccc(F)cc3)CCC(N3CCN(c4ccccc4)CC3)C2)cc1 (single isomer, unassigned; (-)) the ED50 (Mus musculus [6]) was 10.5 mg/kg, the ED50 (Rattus norvegicus [3]) was 10.25 mg/kg and the ED50 (Rattus norvegicus [8]) was 10.25 mg/kg. For the same compound, the IC50 [4] was 25 nM and the ED50 (Mus musculus [11]) was greater than 5 mg/kg.

Fc1ccc([Si]2(c3ccccc3)CCC(N3CCN(c4ccccc4)CC3)C2)cc1 (stereo in doubt) showed an IC50 [4] of 27 nM.

Fc1ccc([Si]2(c3ccc(F)cc3)CCC(N3CCN(c4ccccc4)CC3)C2)cc1 (stereo in doubt) showed an IC50 [4] of 16 nM.

For Cc1nc2sccn2c(=O)c1CCN1CCC(=C(c2ccc(F)cc2)c2ccc(F)cc2)CC1 [RITANSERIN], the ED50 (Mus musculus [1]) was 0.29 mg/kg, the ED50 (Mus musculus [2]) was 0.09 mg/kg and the ED50 (Mus musculus [6]; Mus musculus, po, read-out: ED50) was 0.08 mg/kg. For the same compound, the ED50 (Rattus norvegicus [8]; Rattus norvegicus, sc, read-out: ED50) was 0.38 mg/kg, the ED50 (Rattus norvegicus [9]; [12]) was 18.1 mg/kg and the ED50 (Mus musculus [11]; Mus musculus, sc, read-out: ED50) was 0.05 mg/kg.

— ChEMBL document CHEMBL1127235, “1,1-diphenyl-3-dialkylamino-1-silacyclopentane derivatives: A new class of potent and selective 5-HT2A antagonists” (Bioorg Med Chem Lett, 1994)
